Literature values as cited in patent US20070071706A1, “Lipodissolving dermatological topical preparation” (priority 2005, published 2007).

Details: used as transdermal permeability enhancer / carrier; delivered substance erythromycin; rats

Q: With `CC(O)CO` (centres unmarked) [propylene glycol] as the compound, how does the “local accumulation in the subcutaneous tissue of the substance being transdermally delivered” value read?
A: very negligible and short living subcutaneous accumulation

Q: And the “systemic absorption of the substance being transdermally delivered” value?
A: good systemic absorption
